Experimental data published in patent US12004506B2, “Pharmaceutical composition comprising a cyclic peptide of formula X1-[sequence]-X2 and use for extracorporeal lung treatment” (priority 2013, dated 2024).

Assays:
[1] = Particle size of aerosol droplets after nebulizing the aqueous solution; format: physicochemical
Method: With the aid of nebulizers the aqueous solution of a cyclised compound of formula I, namely that of the amino acid sequence SEQ ID NO: 1 was transferred into an aerosol. The particle size of the droplets was measured after subjecting the aqueous solution to 3 different nebulizers and is set out in Table II below: […]

[2] = test system: non-ischemic pig donor lung; test: Ex vivo lung perfusion (EVLP) of non-ischemic pig donor lungs, inhalative application; conditions: inhalative application, 1 mg/kg, hourly T1 to T4, vs WFI control
Method: Brain death pigs were turned into dorsal position, and a longitudinal sternotomy was performed. The pericardium and both pleural cavities were opened. […] An inflow catheter was placed in the pulmonary artery through a purse-string on the right ventricular outflow tract.
The lungs (non-ischemic) were then preserved with an ante grade flush of cold isotonic preservation solution (50 ml per kg body weigh of pig, containing potassium ions, sodium ions, magnesium ions, calcium ions, chloride ions, dextran, glucose, buffering ions) through the inflow catheter. Incision of the left auricular appendix provides outflow. The lungs were ventilated during this period with 50% oxygen, and iced slush were placed in both pleural cavities and mediastinum.
The explanation technique was en bloc harvesting with heart and esophagus according to the following steps: • a) Dissection of soft tissue bridges to the thoracic cavity on both sides of the trachea. • b) Transsection of both pulmonal ligaments (very deep, difficult exposure), then of the VCI, the lower thoracic descendent aorta and the esophagus, respectively. • c) Blunt separation from remaining mediastinal adhesions. • d) Complete inflation of the donor lung prior of tracheal closure with a stapler.
After explantation, the lungs were wrapped in gauze, placed in an insulated ice bag filled with low-potassium dextran extracellular solution, and stored at 4° C. for 18 to 24 hours. A temperature probe was submerged in the container, which will be placed in a refrigerator.
For ex-vivo lung conditioning, the EVLP technique ([…]) was used. In the EVLP technique, donor lungs are placed into a circuit composed of a pump, ventilator and filters. EVLP technique, the temperature may increased up to 37 °C. In the EVLP, a ventilator is used to deliver oxygen to the lungs. The pump is used to perfuse the lungs with an extracellular solution containing human albumin and nutrition. During EVLP, the lung function can be evaluated regularly on key indicators. […]

[3] = test system: sodium ion current in A549 cells (deglycosylated cell surface); test: Patch clamp assay, whole cell mode, on A549 cells deglycosylated with PNGase F; format: cell-based, human; conditions: 240 nM peptide, Eh -100 mV, A549
Method: In whole cell mode experiments as described above, A549 cells were incubated with “PNGase enzyme F” (Peptide-N^4-(N-acetyl-β-D-glucosaminyl)asparagine amidase F) 100 units for 1-5 minutes immediately prior to the patch clamp measurements and glass cover slips with the cultured cells were rinsed with external solution before being transferred to the chamber of the 1 mL bath.
The results of the deglycosylation experiments using the patch clamp assay in whole cell mode are presented in Table IV, wherein the effect of deglycosylation of A549 cells on activation of sodium ion current by peptides of SEQ ID NO:1 to SEQ ID NO:7 is indicated. Whole cell currents were recorded at Eh=−100 mV.

[4] = Stability of aqueous solution of the cyclised compound; format: physicochemical
From the text: For administration by inhalation/spraying, e.g. in the form of an aerosol, either the aqueous solution from the first dissolution step, or the lyophilisates obtained, re-dissolved in water, is subjected to spraying (atomizing) to obtain an aerosol, e.g. by use of a nebulizer. […] The appropriate lower limit of the droplet size is dependent only from the feasibility of the droplets.

[5] = laboratory syringe, 2 to 8° C., T = 0 and T = 7 days
[6] = storage tank of a nebulizer, 25° C., T = 0 and T = 24 hours

SMILES: C[C@@H]1NC(=O)CNC(=O)[C@H](CCC(=O)O)NC(=O)[C@@H]2CCCN2C(=O)[C@H]([C@@H](C)O)NC(=O)[C@H](CCC(=O)O)NC(=O)[C@H](CCCNC(=N)N)NC(=O)[C@H](CCC(N)=O)NC(=O)CNC(=O)[C@@H](N)CSSC[C@@H](C(=O)O)NC(=O)[C@H](Cc2ccc(O)cc2)NC(=O)[C@H](Cc2c[nH]c3ccccc23)NC(=O)[C@@H]2CCCN2C(=O)[C@H](CCCCN)NC(=O)[C@H](C)NC(=O)[C@H](CCC(=O)O)NC1=O [SEQ ID NO: 1]
- Amount of particles with Ø ≤ 5 μm ([1]; nebulizer Type A): 50%
- Median particle diameter ([1]; nebulizer Type A): 4.7 μm
- Amount of particles with Ø ≤ 5 μm ([1]; nebulizer Type B): 70%
- Median particle diameter ([1]; nebulizer Type B): 3.3 μm
- Amount of particles with Ø ≤ 5 μm ([1]; nebulizer Type C): 65%
- Median particle diameter ([1]; nebulizer Type C): 3.7 μm
- dynamic lung compliance ([2]; FIG. 2A): improved
- arterio-venous pO2 difference ΔpO2 ([2]; FIG. 2B): improved
- Whole cell current, pre-treatment with PNGase F [3]: 19.6 pA (n = 3)
- Purity (stability) ([4]; laboratory syringe, 2 to 8° C., T = 0): 96.3%
- Amount/Content [4, 5]: 25 mg/mL
- Appearance of aqueous solution [4, 5]: Clear solution
- Purity (stability) ([4]; laboratory syringe, 2 to 8° C., T = 7 days): 96.2%
- Purity (stability) ([4]; storage tank of a nebulizer, 25° C., T = 0): 96.6%
- Amount/Content [4, 6]: 25 mg/mL
- Appearance of aqueous solution [4, 6]: Clear solution
- Purity (stability) ([4]; storage tank of a nebulizer, 25° C., T = 24 hours): 96.5%
